Laboratory results published in patent US20230272016A1, “PEPTIDES FOR IMMUNOTHERAPY” (Second Genome, Inc., priority 2020, published 2023).
“Also recorded” adds a separate entry of the source.

Columns and labels:
[1] = tested on: CXCL10 production; experiment: Three point dose response cytokine screen of microbiome peptides; type: cell-based; details: three point dose response curve
Protocol: Studies were performed to identify target peptides that induced CXCL10 production. Target peptides identified from human microbiomes isolated from humans that responded to anti-PD-1 therapy were each tested in a three point dose response curve with TNF-α, CXCL10, IL6, and INF-γ. […] Peptide sequences and characteristics can be found in Tables 13-15.

[2] = tested on: Human monocyte-derived dendritic cells (moDCs); experiment: moDC stimulation with low dose LPS and peptide, flow cytometry; type: cell-based; details: LPS 2 ng/mL with peptide 10 μM
Protocol: Human monocyte-derived dendritic cells (moDCs) were stimulated with low dose lipopolysaccharide (LPS) (2 ng/mL) alone, LPS with peptides SG-3-00802 (10 μM) or SG-3-05021 (10 μM), and LPS (2 ng/mL) with IFNg (50 ng/mL) as a positive control. After stimulation of moDCs, flow cytometry was used to determine induction of the CSCR3 receptor.

[3] = target: T1, CCR7 (Homo sapiens, UniProt P32248); experiment: SelectScreen chemokine receptor U2OS agonist/antagonist assay; type: cell-based; details: CCR7 expressing U2OS cells
T1 construct: expressed in transfected cells
T1 sequence (P32248 25-378): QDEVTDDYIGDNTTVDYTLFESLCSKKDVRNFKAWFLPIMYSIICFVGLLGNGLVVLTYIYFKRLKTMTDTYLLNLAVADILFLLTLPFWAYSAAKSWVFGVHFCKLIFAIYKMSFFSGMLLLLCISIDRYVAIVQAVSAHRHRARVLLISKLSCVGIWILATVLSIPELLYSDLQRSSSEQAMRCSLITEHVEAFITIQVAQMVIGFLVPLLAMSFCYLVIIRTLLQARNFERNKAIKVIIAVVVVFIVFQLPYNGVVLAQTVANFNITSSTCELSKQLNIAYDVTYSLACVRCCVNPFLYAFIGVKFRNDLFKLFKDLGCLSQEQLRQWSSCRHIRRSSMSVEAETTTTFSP
Protocol: (§1) Peptides SG-3-00802 and SG-3-05021 were screened for agonist and antagonist activity of the chemokine receptors CCR7, CXCR3, and CXCR4.
(§2) In agonist assays, chemokine receptor expressing U2OS cells are thawed and resuspended in Assay Media (DMEM, 1% dialyzed FBS, 25 mM HEPES pH 7.3, 0.1 mM NEAA, 100 U/mL/100 μg/mL Pen/Strep) to a concentration of 312,500 cells/mL. 4 μL of a 10×serial dilution of I-TAC (control agonist starting concentration, 500 nM) or compounds are added to appropriate wells of a 384-well TC-Treated assay plate. 32 μL of cell suspension (10,000 cells) is added to each well. 4 μL of Assay Media is added to all wells to bring the final assay volume to 40 μL. The plate is incubated for 16-24 hours at 37° C./5% CO2 in a humidified incubator. 8 μL of 1 μM Substrate+Solution D Loading Solution is added to each well and the plate is incubated for 2 hours at room temperature. The plate is read on a fluorescence plate reader.
(§3) In antagonist assays, CXCR3-bla U2OS cells were thawed and prepared as described above for the Agonist assay. 4 μL of 10×compounds or assay media was added to appropriate wells of a TC-Treated assay plate. 32 μL of cell suspension was added to the wells and pre-incubated at 37° C./5% CO2 in a humidified incubator with compounds and control antagonist titration for 30 minutes. 4 μL of 10×control agonist I-TAC at the pre-determined EC80 concentration is added to wells containing the control antagonist or compounds. The plate is incubated for 16-24 hours at 37° C./5% CO2 in a humidified incubator. 8 μL of 1 μM Substrate+Solution D Loading Solution is added to each well and the plate is incubated for 2 hours at room temperature. The plate is read on a fluorescence plate reader.

[4] = target: T2, CXCR4 (Homo sapiens, UniProt P61073); experiment: as above; type: cell-based; details: CXCR4 expressing U2OS cells
T2 construct: expressed in transfected cells
Protocol: as §1, §2, §3

[5] = tested on: human purified monocyte-derived dendritic cells; experiment: Chemokine release from LPS stimulated monocyte-derived dendritic cells; type: cell-based; details: LPS at low concentrations, suboptimal activation
Source text: LPS was used at low concentrations for a suboptimal activation of dendritic cells in the presence of SG-3-00802 peptide or SG-3-05021 peptide.

[6] = tested on: immature monocyte-derived dendritic cells (moDCs) and allogeneic T cells; experiment: moDC / allogeneic T cell co-culture cytokine secretion; type: cell-based, human; details: after anti-CD40 pre-stimulation, peptide alone or in combination with anti PD1; 72 hours; >4 donor PBMCs
Protocol: In another study, immature monocyte-derived dendritic cells (moDCs) were pre-stimulated with anti-CD40 agonist antibody or the mouse IgG1 isotype control antibody. Twenty-four hours later, T cells isolated from allogeneic donors were added to the moDCs with the peptide of interest, SG-3-00802 or SG-3-05021, alone or in combination with […] monoclonal antibody. The co-culture of cells was incubated for 72 hours, after which cell supernatants were harvested and analyzed for secretion of cytokines, IFN-g and TNF-α. Both SG-3-00802 and SG-3-05021 induced an increase in IFN-γ and TNF-α after stimulation with anti-CD40 either alone or in combination with anti PD1 (FIGS. 26A-26B and 27A-27B). Data shown for experiment conducted in >4 Donor PBMCs.

[7] = target: T3, CXCR3 (Homo sapiens, UniProt P49682); experiment: SelectScreen chemokine receptor U2OS agonist/antagonist assay; type: cell-based; set-up: host or cells: CXCR3-bla U2OS; details: CXCR3-bla U2OS cells; for SelectScreen Antagonist Mode: control agonist I-TAC (CXCL11) at EC80
T3 sequence (P49682 1-368): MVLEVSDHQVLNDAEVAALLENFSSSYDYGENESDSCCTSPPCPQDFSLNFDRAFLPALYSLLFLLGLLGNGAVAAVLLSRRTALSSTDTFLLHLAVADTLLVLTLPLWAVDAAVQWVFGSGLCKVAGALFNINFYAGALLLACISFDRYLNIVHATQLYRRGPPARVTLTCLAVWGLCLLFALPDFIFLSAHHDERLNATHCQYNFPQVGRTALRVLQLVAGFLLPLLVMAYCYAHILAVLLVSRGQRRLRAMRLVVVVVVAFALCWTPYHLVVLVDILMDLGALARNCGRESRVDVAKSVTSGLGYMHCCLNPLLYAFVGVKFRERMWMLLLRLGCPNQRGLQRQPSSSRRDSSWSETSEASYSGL
Protocol: as §1, §2, §3
Activity assays for CXCR4, CXCR3, and CCR7 were performed in agonist and antagonist mode for both SG-3-00802 and SG-3-05021 peptides. […] SG-3-00802 and SG-3-05021 may allow for a mechanism to enhance CXCR3 activation already shown to be a critical pathway in numerous publications as mediating anti-tumor treatment.

T2 sequence (P61073 whole entry): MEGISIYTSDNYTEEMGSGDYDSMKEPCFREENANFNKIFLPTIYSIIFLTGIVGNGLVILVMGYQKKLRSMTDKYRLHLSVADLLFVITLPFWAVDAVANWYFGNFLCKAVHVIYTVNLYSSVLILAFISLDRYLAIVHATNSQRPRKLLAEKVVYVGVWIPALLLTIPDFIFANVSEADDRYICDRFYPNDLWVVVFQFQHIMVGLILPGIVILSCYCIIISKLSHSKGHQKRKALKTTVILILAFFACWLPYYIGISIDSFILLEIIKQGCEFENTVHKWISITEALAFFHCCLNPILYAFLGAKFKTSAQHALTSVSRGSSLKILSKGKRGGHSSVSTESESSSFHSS

Sequence | CXCL10 induction [1] | CXCR3 receptor internalization [2] | DC-SIGN expression [2] | SelectScreen Agonist Mode [3] | SelectScreen Agonist Mode [4] | CXCL10 chemokine release [5] | IFN-γ secretion [6] | TNF-α secretion [6] | SelectScreen Agonist Mode [7] | SelectScreen Antagonist Mode [7] | SelectScreen Antagonist Mode [4]
LGKTDWIEKYFKVKKEKIDKMQRFLQG [SG-3-05021, peptide from bacteroides.clarus.dsm.22519] | high CXCL10 induction | did not induce CXCR3 receptor internalization | down-regulate DC-SIGN | no agonistic activity and No | no agonistic activity and No | dose-dependent increase | increase | increase | no agonistic activity and No | sensitized CXCR3; also recorded: Sensitizer | –
MKVRPSVKPMCEKCKIIRRKGRVMVICENPKHKQRQG [SG-3-00802, peptide from oscillibacter.sp t_155102] | high CXCL10 induction | did not induce CXCR3 receptor internalization | down-regulate DC-SIGN | weak agonistic activity and No | no agonistic activity and No | dose-dependent increase | increase | increase | weak agonistic activity and No | potent reverse antagonistic activity (sensitization); also recorded: sensitized CXCR3; also recorded: Sensitizer | moderate antagonistic activity and no antagonistic activity and Yes
